Several values for one entry are separate records, joined by “and”; a condition that tells them apart may be missing. Equal entries are not always repeated.
Tests used:
[1] = tested on: melatonin signaling in PBMCs; experiment: CDS response to iodomelatonin in PBMCs from control and IS subjects; assay type: cell-based, human
From the text: Blood samples were obtained from patients and control groups and collected in blood collection tubes containing EDTA and then centrifuged on a Ficoll-Plaque (GE Healthcare, Mississauga, ON, Canada) solution to obtain PBMCs (containing principally lymphocytes). PBMC fractions were preserved frozen in FBS with 10% DMSO and kept in liquid nitrogen until thawed and assayed. PBMCs were harvested from stock tissue culture flask and washed three times with assay buffer. Cells were isolated from the heparinized peripheral by ficoll-Hypaque density gradient centrifugation, and cultured in RPMI 1640 medium supplemented with 10% FBS, 100 μg/mL streptomycin and 1% of phytohemagglutinin. Following 48 h of incubation at 37° C./CO2 cells were washed three times with assay buffer and seeded into the CELLKEY™ label-free cellular analysis system small 96-well plates. Typically, an average of 1×10^5 cells to 1.5×10^5 were added to each well and allowed to settle for 30 min at room temperature. […] After the cells settled, the cell plate was placed on the instrument and experiments were initiated in the manner described below after the acquisition of 5 min of baseline measurements. All experiments were conducted at 28° C.
(§1) The response induced by the various ligands to their receptors was measured by cellular dielectric spectroscopy (CDS) using the CELLKEY™ label-free cellular analysis technology. (MDS Sciex, San Francisco, Calif., USA). The CELLKEY™ label-free cellular analysis system integrates a proprietary impedance measurement system, custom 96-well microliter plate, onboard 96-well fluidics, and environment control and custom acquisition and analysis software in a full solution package (MDS Sciex) that is compatible with commercially available robotic platforms. Small voltage at 24 frequencies, from 1 KHz to 10 MHz, is applied to a monolayer of cells settled in a 96-well microplate containing electrodes at the bottom, and the resultant current is measured at an update rate of 2 s. […] Onboard fluid additions and exchanges are handled by 96-well head fluid delivery device with a range of 5-500 μL. In addition to the cell plate location, the CELLKEY™ label-free cellular analysis system includes two additional stations for 96- or 384-well compound plates. All aspects of assay set up, execution, and data acquisition and analysis are controlled by CELLKEY™ label-free cellular analysis software.
PBMCs were isolated from control subjects, IS subjects as described in Example 2 above.

[2] = tested on: Gi protein-mediated pathway in MG63 osteoblast cell line; assay type: cell-based; conditions: 100 ng/mL PTX 16 h, stimulation with 10 μM ligand, 37° C., 5 min
Description: The ability of CDS to detect the relative part of the Gi protein-mediated pathway in melatonin signaling was determined by blocking this pathway with pertussis toxin (PTX). This toxin ADP-ribosylates the a subunit of the heterotrimeric Gi protein and thereby prevents its activity. The MG63 osteoblast cell line was serum-starved for 16 h in the absence or presence of 100 ng/mL of PTX to inhibit the αi subunit of Gi protein. […] Cellular responses were measured with CELLKEY™ label-free cellular analysis system as described in the Material and Methods section.

[3] = tested on: receptors coupled to Gi proteins expressed on osteoblasts; experiment: Cellular Dielectric Spectroscopy (CDS, CELLKEY) response to Gi-coupled receptor ligands in osteoblasts from control and AIS subjects; assay type: cell-based, human; conditions: for dZiec value: n1, n2 of Exper. 1-3
From the text: Bone specimens were obtained intraoperatively from vertebras (varying from T3 to L4 according to the surgical procedure performed), while with trauma cases used as non-scoliotic controls bone specimens were obtained from other anatomical sites (tibia or femur, and in one case from an iliac crest biopsy). Osteoblasts and myoblasts isolated as previously described (Moreau A, Wang D S, Forget S et al. Melatonin Signaling Dysfunction in Adolescent Idiopathic Scoliosis. Spine 2004; 29:1772-81; Azeddine et al., 2007 Molecular determinants of melatonin signaling dysfunction in adolescent idiopathic scoliosis. Clin Orthop Relat Res. 2007, 462:45-52), were cultured at 37° C./5% CO2 in MEM supplemented with 10% fetal bovine serum (FBS) and 100 μg/mL streptomycin. Prior to the experiment, cells were seeded into the CELLKEY™ label-free cellular analysis system standard 96-well plates at a density of 5×10^4/well and grown for 24 h and incubated in standard conditions (37° C./5% CO2). In some plates, Pertussis toxin (100 ng/mL, Sigma, Oakville, ON, Canada) treatment was performed 16 h before the CDS assay. Following overnight incubation, plates were placed onto the CELLKEY™ label-free cellular analysis system and growth medium was exchanged to assay buffer (Hanks, Balanced Salt Solution containing 20 mM HEPES and 0.1% BSA) before starting the experiment. Cells were then allowed to equilibrate at room temperature for 30 min. Pre-addition measurements were made for 5 min to obtain a baseline reading. […] The quick update rate (2 s.) of the CELLKEY™ label-free cellular analysis system allows detection of these immediate changes in impedance. Impedance measurements were collected for 10 min to 15 min at 28° C. after ligand addition to monitor cellular responses to ligand interaction and to generate CELLKEY™ label-free cellular analysis system response profiles that are characteristic of the signaling mechanisms used.
as §1
The minimal (min) and maximal (max) values represent the mean of three independent measurements performed in duplicate (six values in total) for a given patient/control subject. […] Duplicates (n1 and n2) of three independent experiments are presented.

[4] = PBMCs of control subjects, 300 μM, from FIG. 12A
[5] = osteoblasts of control subjects, 300 μM ligand, from FIGS. 11A-11F

## COc1ccc2[nH]c(I)c(CCNC(C)=O)c2c1 [Iodomelatonin, 2-lodomelatonin]
[1]; PBMCs from IS patients, 300 μM
  maximal magnitude of CDS response: 110 ohms
  minimum magnitude of CDS response: 16 ohms
[1]; PBMCs from healthy volunteers, 300 μM
  minimal magnitude of CDS response: 124 ohms
[1]; PBMCs from normal/healthy subjects, 300 μM
  melatonin signaling response (CDS): greater than 120 ohms
[1]; [4]
  Absolute dZiec, control value of max diff. (maximal control value): 225
  Absolute dZiec, control value of min diff. (minimal control value): 124
[1]; PBMCs, FIG. 12A, melatonin data not shown
  responsiveness of PBMCs from patients with IS compared to healthy volunteers: less responsive
[1]; PBMCs, Group 1 value of max diff., 300 μM, from FIG. 12A
  Absolute dZiec, Group 1, max diff. (group value): 16
[1]; PBMCs, Group 1 value of min diff., 300 μM, from FIG. 12A
  Absolute dZiec, Group 1, min diff. (group value): 36
[1]; PBMCs, Group 2 value of max diff., 300 μM, from FIG. 12A
  Absolute dZiec, Group 2, max diff. (group value): 49
[1]; PBMCs, Group 2 value of min diff., 300 μM, from FIG. 12A
  Absolute dZiec, Group 2, min diff. (group value): 75
[1]; PBMCs, Group 3 value of max diff., 300 μM, from FIG. 12A
  Absolute dZiec, Group 3, max diff. (group value): 86
[1]; PBMCs, Group 3 value of min diff., 300 μM, from FIG. 12A
  Absolute dZiec, Group 3, min diff. (group value): 110
[1]; PBMCs, IS group 1, 300 μM
  mean of CDS response: 27.86±4.18 ohms
[1]; PBMCs, IS group 2, 300 μM
  mean of CDS response: 65.71±3.42 ohms
[1]; PBMCs, IS group 3, 300 μM
  mean of CDS response: 97.94±1.36 ohms
[1]; PBMCs, control group, 300 μM
  mean of CDS response: 155.17±3.91 ohms
[2]
  inhibition extent of the CDS response by PTX treatment: ~90%
[3]; osteoblasts from both control and IS patients, FIGS. 4A-4C
  CDS response, dependence on concentration: concentration-dependent manner
[3]; osteoblasts of AIS#1020 (Group 3), 300 μM ligand
  dZiec value: 69.57 and 66.57 and 85.25 and 97.25 and 83.71 and 74.11
[3]; osteoblasts of AIS#1198 (Group 3 in Table II), 300 μM ligand
  dZiec value: 61.05 and 65.29 and 70.29 and 60.97 and 57.37
[3]; osteoblasts of AIS#1385 (Group 2), 300 μM ligand
  dZiec value: 66.51 and 67.51 and 79.93 and 81.93 and 79.02 and 69.42
[3]; osteoblasts of AIS#1468 (Group 3), 300 μM ligand
  dZiec value: 91.38 and 88.38 and 101.69 and 113.69 and 102.83 and 93.23
[3]; osteoblasts of AIS#1474 (Group 1), 300 μM ligand
  dZiec value: 33.02 and 32.02 and 38.33 and 32.33 and 39.97 and 36.37
[3]; osteoblasts of AIS#1488 (Group 1), 300 μM ligand
  dZiec value: 25.43 and 27.43 and 30.31 and 27.31 and 19.17 and 19.57
[3]; osteoblasts of AIS#1513 (Group 3), 300 μM ligand
  dZiec value: 83.92 and 80.92 and 94.08 and 106.08 and 95.30 and 85.70
[3]; osteoblasts of AIS#1550 (Group 2), 300 μM ligand
  dZiec value: 55.99 and 48.99 and 60.90 and 62.90 and 62.74 and 59.14
[3]; osteoblasts of control CTR#60, 300 μM ligand
  dZiec value: 142.55/— and 139.55/— and 149.20/— and 161.20/— and 152.18/— and 142.58/—
[3]; osteoblasts of control CTR#61, 300 μM ligand
  dZiec value: 130.88/— and 127.88/— and 138.31/— and 150.31/— and 140.90/— and 131.30/—
[3]; osteoblasts of control CTR#69, 300 μM ligand
  dZiec value: 150.99/— and 147.99/— and 161.10/— and 173.10/— and 162.34/— and 152.74/—
[3]; [5]
  Absolute dZiec, control value of max diff. (maximal control value): 159
  Absolute dZiec, control value of min diff. (minimal control value): 120
[3]; osteoblasts, AIS Group 1 value of max diff., 300 μM ligand, from FIGS. 11A-11F
  Absolute dZiec, Group 1, max diff. (group value): 15
[3]; osteoblasts, AIS Group 1 value of min diff., 300 μM ligand, from FIGS. 11A-11F
  Absolute dZiec, Group 1, min diff. (group value): 35
[3]; osteoblasts, AIS Group 2 value of max diff., 300 μM ligand, from FIGS. 11A-11F
  Absolute dZiec, Group 2, max diff. (group value): 57
[3]; osteoblasts, AIS Group 2 value of min diff., 300 μM ligand, from FIGS. 11A-11F
  Absolute dZiec, Group 2, min diff. (group value): 84
[3]; osteoblasts, AIS Group 3 value of max diff., 300 μM ligand, from FIGS. 11A-11F
  Absolute dZiec, Group 3, max diff. (group value): 90
[3]; osteoblasts, AIS Group 3 value of min diff., 300 μM ligand, from FIGS. 11A-11F
  Absolute dZiec, Group 3, min diff. (group value): 101
[3]; osteoblasts, FIGS. 4A-4C
  magnitude of CDS response in IS osteoblasts vs control: significantly lower

Source: patent US10620222B2, “Electrified compositions for determining the risk of developing adolescent idiopathic scoliosis through the use of GI protein receptor” (CHU Sainte-Justine, priority 2008, dated 2020)
